Experimental data as given in patent US8618163B2, “Derivatives of cycloalkyl- and cycloalkenyl-1,2-dicarboxylic acid compounds having formyl peptide receptor like-1 (FPRL-1) agonist or antagonist activity” (Allergan, Inc., priority 2010, dated 2013).
Like-named read-outs stand apart in the source and are kept apart here.

What was measured:
FPRL1 = biological target: T1, FPRL1 (Homo sapiens, UniProt P25090); assay: compound-induced calcium activity on FLIPR Tetra in CHO-Gal6 cells stably expressing FPRL1; assay type: cell-based; settings: for FPRL1 (rel. eff.): relative efficacy
T1 construct: expressed in transfected cells; host or cells: CHO-Gal6 (CHO cells with G alpha 16)
T1 sequence (P25090 1-351): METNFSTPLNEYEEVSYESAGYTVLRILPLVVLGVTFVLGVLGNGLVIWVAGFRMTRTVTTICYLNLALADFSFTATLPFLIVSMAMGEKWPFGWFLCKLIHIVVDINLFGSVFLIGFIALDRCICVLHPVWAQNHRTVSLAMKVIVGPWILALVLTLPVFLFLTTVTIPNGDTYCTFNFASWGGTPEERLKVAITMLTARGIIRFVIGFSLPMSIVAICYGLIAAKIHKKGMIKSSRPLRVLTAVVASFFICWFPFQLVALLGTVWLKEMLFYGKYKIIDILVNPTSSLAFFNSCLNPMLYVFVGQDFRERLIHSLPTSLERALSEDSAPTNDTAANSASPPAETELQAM
Experimental: (§1) CHO-Gal6 cells stably expressing FPRL1 were cultured in (F12, 10% FBS, 1% PSA, 400 μg/ml geneticin and 50 μg/ml hygromycin) and HEK-Gqi5 cells stable expressing FPR1 were cultured in (DMEM high glucose, 10% FBS, 1% PSA, 400 μg/ml geneticin and 50 μg/ml hygromycin). In general, the day before the experiment, 18,000 cells/well were plated in a 384-well clear bottom poly-d-lysine coated plate. The following day the screening compound-induced calcium activity was assayed on the FLIPR^Tetra. The drug plates were prepared in 384-well microplates using the EP3 and the MultiPROBE robotic liquid handling systems. Compounds were tested at concentrations ranging from 0.61 to 10,000 nM. Results are expressed as EC50 (nM) and efficacy values.

FPR1 = biological target: T2, FPR1 (Homo sapiens, UniProt P21462); assay: compound-induced calcium activity on FLIPR Tetra in HEK-Gqi5 cells stable expressing FPR1; assay type: cell-based; parameters: FPR1 (rel. eff.): scale not given here; settings: for FPR1 (rel. eff.): relative efficacy
T2 construct: expressed in transfected cells; host or cells: HEK-Gqi5 (HEK cells with chimeric G protein Gqi5)
T2 sequence (P21462 1-350): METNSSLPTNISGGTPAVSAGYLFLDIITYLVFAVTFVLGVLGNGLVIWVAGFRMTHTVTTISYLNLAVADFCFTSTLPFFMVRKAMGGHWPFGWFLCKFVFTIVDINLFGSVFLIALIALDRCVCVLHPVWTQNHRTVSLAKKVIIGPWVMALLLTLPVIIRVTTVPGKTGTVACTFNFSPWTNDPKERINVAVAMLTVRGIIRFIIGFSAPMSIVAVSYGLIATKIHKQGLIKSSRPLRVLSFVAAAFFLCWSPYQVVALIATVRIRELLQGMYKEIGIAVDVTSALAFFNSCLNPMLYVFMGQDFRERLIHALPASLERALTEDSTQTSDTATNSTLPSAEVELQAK
Experimental: as §1

[1] = calcium, FLIPR Tetra, tested 0.61 to 10,000 nM, read-out: FPRL1 EC50
[2] = class symbol NA, read-out: FPR1 EC50 (NA = Not Active)
[3] = calcium, FLIPR Tetra, tested 0.61 to 10,000 nM, read-out: FPR1 EC50

Structure (SMILES) | EC50 (FPRL1; [1]) | FPRL1 (rel. eff.) (FPRL1; calcium, FLIPR Tetra) | EC50 (FPR1; [2]) | FPR1 (rel. eff.) (FPR1; calcium, FLIPR Tetra) | EC50 (FPR1; [3]) | EC50 (FPRL1; class symbol NA, read-out: FPRL1 EC50 (NA = Not Active))
CC1(C)[C@@H]2CC[C@H]1[C@@H](C(=O)Nc1ccc(Cl)cc1)[C@H]2C(=O)O (racemic) [Compound 14, (+/−)-(1R,2S,3R,4S)-3-(4-Chlorophenylcarbamoyl)-7,7-dimethylbicyclo[2.2.1]heptane-2-carboxylic Acid] | 36 nM | 0.86 | > 10000 nM | – | – | –
CCOC(=O)C1C(C(=O)Nc2ccc(I)cc2)C2C=CC1C21CC1 (racemic) [Compound 17, Ethyl(+/−)-(1S,4R,5S,6R)-6-(4-Iodophenylcarbamoyl)spiro[bicyclo[2.2.1]hept[2]ene-7,1′-cyclopropane]-5-carboxylate] | 243 nM | 0.76 | > 10000 nM | – | – | –
CC(C)OC(=O)C1C(C(=O)Nc2ccc(I)cc2)C2C=CC1C21CC1 (racemic) [Compound 18, Iso-propyl(+/−)-(1S,4R,5S,6R)-6-(4-Iodophenylcarbamoyl)spiro[bicyclo[2.2.1]hept[2]ene-7,1′-cyclopropane]-5-carboxylate] | 187 nM | 0.72 | > 10000 nM | – | – | –
CC(C)=C1[C@H]2C=C[C@@H]1[C@H](C(=O)O)[C@@H]2C(=O)Nc1ccc(Br)cc1 (racemic) [Compound 20, (+/−)-(1S,4R,5S,6R)-6-(4-Bromophenylcarbamoyl) [bicyclo[2.2.1]hept[2]ene-7-propan-2-ylidene]-5-carboxylic Acid] | 30 nM | 0.96 | > 10000 nM | – | – | –
CC(C)=C1[C@H]2C=C[C@@H]1[C@@H](C(=O)O)[C@H]2C(=O)Nc1ccc(Br)cc1 (racemic) [Compound 21, (+/−)-(1S,4R,5R,6S)-6-(4-Bromophenylcarbamoyl)[bicyclo[2.2.1]hept[2]ene-7-propan-2-ylidene]-5-carboxylic Acid] | 461 nM | 0.77 | – | 50 | – | –
CC(C)=C1C2CCC1C(C(=O)Nc1ccc(Br)cc1)C2C(=O)O (racemic) [Compound 24, (+/−)-(1S,2R,3S,4S)-3-(4-Bromophenylcarbamoyl)[bicyclo[2.2.1]heptane-7-propan-2-ylidene]-2-carboxylic Acid] | 164 nM | 0.89 | – | – | 8300 nM | –
O=C(O)C1C(C(=O)Nc2ccc(Br)cn2)C2C=CC1C21CC1 (racemic) [Compound 25, (+/−)-(1S,4R,5S,6R)-6-(5-Bromo-2-pyridylcarbamoyl)spiro[bicyclo[2.2.1]hept[2]ene-7,1′-cyclopropane]-5-carboxylic Acid] | 149 nM | 0.74 | > 10000 nM | – | – | –
O=C(O)C1C(C(=O)Nc2ccc(-c3ccccc3)cc2)C2C=CC1C21CC1 (racemic) [Compound 26, (+/−)-(1R,4S,5R,6S)-5-([1,1′-Biphenyl]-4-ylcarbamoyl)spiro[bicyclo[2.2.1]hept[2]ene-7,1′-cyclopropane]-6-carboxylic Acid] | 2360 nM | 0.69 | > 10000 nM | – | – | –
O=C(O)C1C(C(=O)Nc2cccc(C(F)(F)F)c2)C2C=CC1C21CC1 (racemic) [Compound 27, (+/−)-(1S,4R,5S,6R)-6-β3-(Trifluoromethyl)phenyl)carbamoyl)spiro[bicyclo-[2.2.1]hept[2]ene-7,1′-cyclopropane]-5-carboxylic Acid] | 2770 nM | 0.72 | > 10000 nM | – | – | –
O=C(O)C1C(C(=O)Nc2ccc(Cl)c(Cl)c2)C2C=CC1C21CC1 (racemic) [Compound 28, (+/−)-(1S,4R,5S,6R)-6-((3,4-Dichlorophenyl)carbamoyl)spiro[bicyclo[2.2.1]hept[2]-ene-7,1′-cyclopropane]-5-carboxylic Acid] | 616 nM | 0.70 | > 10000 nM | – | – | –
O=C(O)[C@@H]1[C@H](C(=O)Nc2ccc3c(c2)oc2ccccc23)[C@@H]2CC[C@H]1C21CC1 (racemic) [Compound 31, (+/−)-(1S,4R,5S,6R)-6-(dibenzo[b,d]furan-3-ylcarbamoyl)spiro[bicyclo[2.2.1]-heptane-7,1′-cyclopropane]-5-carboxylic acid] | 2260 nM | 0.9 | > 10000 nM | – | – | –
CC(=O)c1ccc(NC(=O)C2C(C(=O)O)C3C=CC2C32CC2)cc1 (racemic) [Compound 32, (+/−)-(1R,4S,5R,6S)-5-((4-Acetylphenyl)carbamoyl)spiro[bicyclo[2.2.1]hept[2]ene-7,1′-cyclopropane]-6-carboxylic Acid] | 277 nM | 0.96 | > 10000 nM | – | – | –
O=C(O)C1C(C(=O)Nc2ccc(O)cc2)C2C=CC1C21CC1 (racemic) [Compound 33, (+/−)-(1S,4R,5S,6R)-6-((4-Hydroxyphenyl)carbamoyl)spiro[bicyclo[2.2.1]hept[2]ene-7,1′-cyclopropane]-5-carboxylic Acid] | – | – | > 10000 nM | – | – | > 10000 nM
O=C(O)C1C(C(=O)Nc2ccc(OC(F)(F)F)cc2)C2C=CC1C21CC1 (racemic) [Compound 34, (+/−)-(1S,4R,5S,6R)-6-β4-(Trifluoromethoxy)phenyl)carbamoyl)spiro[bicyclo-[2.2.1]hept[2]ene-7,1′-cyclopropane]-5-carboxylic Acid] | 585 nM | 0.96 | > 10000 nM | – | – | –
CSc1ccc(NC(=O)C2C(C(=O)O)C3C=CC2C32CC2)cc1 (racemic) [Compound 35, (+/−)-(1S,4R,5S,6R)-6-((4-(Methylthio)phenyl)carbamoyl)spiro[bicyclo-[2.2.1]hept[2]ene-7,1′-cyclopropane]-5-carboxylic Acid] | 14 nM | 0.85 | > 10000 nM | – | – | –
CCc1ccc(NC(=O)C2C(C(=O)O)C3C=CC2C32CC2)cc1 (racemic) [Compound 36, (+/−)-(1S,4R,5S,6R)-6-((4-Ethylphenyl)carbamoyl)spiro[bicyclo[2.2.1]hept[2]ene-7,1′-cyclopropane]-5-carboxylic Acid] | 59 nM | 0.91 | > 10000 nM | – | – | –
CCc1ccc(NC(=O)[C@H]2[C@@H](C(=O)O)[C@H]3CC[C@@H]2C32CC2)cc1 (racemic) [Compound 40, (+/−)-(1R,2S,3R,4S)-3-((4-Ethylphenyl)carbamoyl)spiro[bicyclo[2.2.1]heptane-7,1′-cyclopropane]-2-carboxylic Acid] | 16 nM | 0.79 | > 10000 nM | – | – | –
O=C(O)[C@@H]1[C@H](C(=O)Nc2ccc(OC(F)(F)F)cc2)[C@@H]2CC[C@H]1C21CC1 (racemic) [Compound 41, (+/−)-(1R,2S,3R,4S)-3-((4-(Trifluoromethoxy)phenyl)carbamoyl)spiro-[bicyclo[2.2.1]heptane-7,1′-cyclopropane]-2-carboxylic Acid] | 123 nM | 0.80 | > 10000 nM | – | – | –
CSc1ccc(NC(=O)[C@H]2[C@@H](C(=O)O)[C@H]3CC[C@@H]2C32CC2)cc1 (racemic) [Compound 42, (+/−)-(1R,2S,3R,4S)-3-((4-(Methylthio)phenyl)carbamoyl)spiro[bicyclo-[2.2.1]heptane-7,1′-cyclopropane]-2-carboxylic Acid] | 7 nM | 0.96 | – | 0.23 | 1100 nM | –
